Where “and” joins values, the source holds several entries; their conditions need not be identical. Identical values can stand only once.
Key:
Format in all cases: cell-based, human
[1] = tested on: Vγ9Vδ2 T cells; experiment: Activation / CD107 degranulation of expanded Vγ9Vδ2 T cells (phosphoantigen or anti-CD3 stimulation); settings: increasing doses of BrHPP alone
Experimental: We used for γδ T cells labelling in purity test after expansion, anti-CD3 PE-Cy7 and anti-Vδ2 FITC mAb (BD Pharmingen). For CD277 characterisation in different subsets PBMC were incubated with the following antibodies and molecules: anti-CD3 PE-Cy5 (BD Pharmingen), anti-CD4 PB (BD Pharmingen), anti-CD8 PB (BD Pharmingen), anti-Vδ2 FITC (BD Pharmingen), anti-CD27 APC ALEXA FLUOR® 750 (CALTAG Laboratory), anti-CCR7 PECy7 (BD Pharmingen), anti-CD28 PE (Beckman Coulter), anti-CD45RA ECD (Beckman Coulter), LIVE/DEAD® Fixable Dead Cell Stain Kit (L34957, Invitrogen) and anti-CD277 labelled with ALEXA FLUOR® 647 (Protein labelling Kit ALEXA FLUOR® 647, Molecular Probes, Invitrogen). […] All samples were measured on FACSCANTO® or FACSARIA® flow cytometers (BD Biosciences) using FACSDIVA® software. […]
PBMC were plated and stimulated as described in the paragraph: cell lines and expansion of γδ T cells, except cells were stimulated with anti-CD277 mAbs (10 μg/ml); or control isotypes (10 μg/ml); and with or without BrHPP at different concentrations. […] Percentages of Vγ9Vδ2 were measured the first day and the last day of culture as described above. […] Activation of degranulation was measured by CD107 labelling assay as described above.

[2] = tested on: immature dendritic cells (iDC); experiment: Apoptosis detection (Annexin V), survival of iDC; settings: plastic-coated mAb or GM-CSF, 72-h culture, representative value and range of five experiments
Experimental: (§1) Blood samples were obtained from 5 healthy volunteers enrolled among the staff members, after informed consent. Monocytes were separated from peripheral blood mononuclear cells, and isolated using the MACS CD14 isolation kit (Miltenyi Biotech, Auburn, Calif. USA). Monocytes were cultured for 5 days with 200 ng/ml of recombinant human GM-CSF and 10 ng/ml recombinant human IL-4 (Schering-Plough Research Institute). These cells were termed immature dendritic cells (iDC). To achieve the stimulation, monocytes and iDC were cultured with 10 ng/ml of LPS, ligand for TLR4, 30 μg/ml of 8848 (Sigma-Aldrich, Milano, Italy), ligand for TLR7/8 and with […] of poly (I:C) (Sigma-Aldrich), ligand for TLR3, and were harvested after 48 h. The cells were cultured in RPMI 1640 supplemented with 10% heat-inactivated FCS, 5 mM L-glutamine and 50 IU/ml penicillin-streptomycin (from here on referred to as complete medium).
(§2) Monocytes and iDC were cultured on plastic coated with anti-BT3 mAb (clone 20.1) or with isotype-matched irrelevant mAb. As control, the cells were stimulated with 20 ng/ml recombinant human GM-CSF (Schering-Plough Research Institute). After three days, cells were harvested, stained with Annexin V-FITC (Bender MedSystems, Wien, Austria) and analysed by flow cytometry.

[3] = tested on: monocytes; experiment: Apoptosis detection (Annexin V), survival of monocytes; settings: plastic-coated mAb or 20 ng/ml GM-CSF, 3 days (72 hours), Annexin V; representative value and range of five experiments
Experimental: as §1, §2

[4] = tested on: primary AML blasts; experiment: Chromium release assay, lysis of primary AML blasts by Vγ9Vδ2 T cells; settings: E:T 30:1; ZOL 45 μM O/N, 20.1 mAb 10 μg/ml, BrHpp 2 μM
Experimental: (§3) Effector γδ T cells were established and maintained as previously described^28. PBMC from HV were stimulated with ZOL (1 μm) and rhlL-2 (200 IU/ml) at Day 0. From Day 5, rhIL-2 was renewed every two days and cells were kept at 1.5×10^6/m1 for 15 days. NK cells were isolated using EASYSEP® Human NK cell enrichment kit (StemCell Technologies). The purity of γδ T cells and NK cells was determined by flow cytometry and respectively greater than 80% and 98%. The Burkitt lymphoma cell line, DAUDI, the human AML cell line, U937, and the erythroleukemic cell line, K562, were obtained from the American Type Culture Collection and cultured (0.5×10^6/ml) in RPMI 1640 medium with 10% FCS. BTN3A Knock-down HEK293FT cells (sh #284; clone #30) were provided by E.Scotet (Inserm U892, Nantes), cultured and transfected with BTN3A1, BTN3A2, BTN3A3 mutated cDNA-containing plasmids, as described^23.
(§4) 0.5×10^6 target cells were incubated with 50 pCi of ^51Cr (Perkin-Elmer) for AML blasts and 10 pCi for DAUDI and K562 cells for 90 minutes and mixed with effector cells in a Effector:Target (E:T) ratio of […]. After 4 hours of incubation at 37° C., 50p1 supernatant of each sample was transferred in LUMA® plates and radioactivity was determined by a gamma counter. The percentage of specific lysis was calculated using the formula [(experimental−spontaneous release/total−spontaneous release)×100] and expressed as the mean of triplicate.

[5] = tested on: primary AML blasts; experiment: Chromium release assay, lysis of primary AML blasts by NK cells
Experimental: as §3, with “BTN3A Knock-down HEK293FT cells (sh #284; clone #30) were provided by E.Scotet (Inserm U892, Nantes), cultured and transfected with BTN3A1, BTN3A2, BTN3A3 mutated cDNA-containing plasmids, as described^23.” left out
as §4

With `CC(O)(CBr)CCOP(=O)(O)OP(=O)(O)O` (centres unmarked) [BrHPP] the CD107 expression [1] was “up to 40%”.
With “GM-CSF: recombinant human GM-CSF, survival control [reference compound]” the “healthy-vital (surviving) iDC” value [2] was 85.97% and 71.01-85.97% and the “monocytes survived in the absence of endogenous survival factors” value [3] was 81.22% and 60.41-83%.
For `O=P(O)(O)C(O)(Cn1ccnc1)P(=O)(O)O` [ZOL, Zoledronate, reference compound], the “enhancement of Vγ9Vδ2 T cells lysis of AML blasts compared with BrHpp” value [4] was “significantly more efficient” and the “NK cells-mediated AML blasts lysis” value [5] was “no effect”.

From patent US11904004B2, “Anti-CD277 antibodies” (INSTITUT NATIONAL DE LA SANTE ET DE LA RECHERCHE MEDICALE …, priority 2010, dated 2024)
